Laboratory results from patent publication US20130171162A1, “COMPOSITIONS AND METHODS FOR THE PREVENTION OF OXIDATIVE DEGRADATION OF PROTEINS” (priority 2008, published 2013).
Entries after “also recorded” stand apart in the source; their conditions may differ. Read-outs that look alike come from different tables or passages of the source.

Experiments:
anti-VEGF antibody = conditions: for protection of anti-VEGF antibody against oxidation (basic peaks in IEC): AAPH, free Trp 2 or 10 mg/mL
PTH [1] = assay: Screening stabilizers for PTH oxidized by AAPH, H2O2 plus Fe(II), H2O2; rp-HPLC; format: physicochemical
PTH [2] = conditions: AAPH, FIG. 11
PTH [3] = assay: Screening stabilizers for PTH oxidized by AAPH, H2O2 plus Fe(II), H2O2; rp-HPLC; format: physicochemical; conditions: for protection of Trp residue in PTH: stress AAPH 1 mM, stabilizer 2 mg/mL; for protection of Trp residue in PTH / protection of PTH against oxidation: 40° C., 6 hours; for protection of PTH against oxidation: stress AAPH
Experimental: The protein solution was subsequently stressed by the addition of 1 mM of AAPH, and incubated at 40° C. for 6 hours.
The experiments were carried on a Waters HPLC instrument using a C4 (Vydac, 214TP, 5μ, 2.1×250 mm). The solvent A was 0.1% trifluoracetic acid (TFA) in H2O and the solvent B was 0.08% TFA in acetonitrile. The samples were analyzed with a linear gradient from 20% B to 80% B at a flow rate of 0.2 mL/min in 45 min. The column temperature was set at 30° C.

[4] = Anti-VEGF antibody oxidation, IEC chromatogram; conditions: for oxidation / oxidative species in basic region of IEC: H2O2
[5] = stress H2O2 plus Fe(II) (Fenton reaction), 40° C., 6 hours

## O=C([O-])CN(CCN(CC(=O)[O-])CC(=O)O)CC(=O)O.[Na+].[Na+] [EDTA, EDTA disodium]
anti-VEGF antibody; EDTA added as stabilizer
  effect on Trp 50 oxidation of anti-VEGF antibody: inhibited; also recorded: improved stability

## OC[C@H]1O[C@@](CO)(O[C@H]2O[C@H](CO)[C@@H](O)[C@H](O)[C@H]2O)[C@@H](O)[C@@H]1O [Sucrose, sucrose]
PTH [1]; [5]
  protection of PTH against oxidation: less effective than mannitol

## CSCC[C@H](N)C(=O)O [free methionine, L-Methionine]
PTH [1]; free Met 2 mg/mL, FIG. 6
  effect on the oxidation of Trp in PTH (Trp[O] peak): no effect
  oxidation of Met residues in PTH (Met[O]-PTH peaks): significantly reduced
PTH [1]; stress H2O2, 40° C., 6 hours
  protection of PTH against oxidation: protected
PTH [1]; stress H2O2, 40° C., 6 hours, listed as Free Met
  protection of PTH against oxidation: neutralized the effect of the oxidants H2O2
PTH [1]; [5]
  protection of PTH against oxidation: protected
PTH [1]; stress H2O2 plus Fe(II) (Fenton reaction), 40° C., 6 hours, listed as Free Met
  protection of PTH against oxidation: neutralized the effect of the oxidants H2O2
PTH [2]
  Met oxidation of PTH, relative quantification by EIC: suppressed the Met oxidation significantly

## N[C@@H](Cc1c[nH]c2ccccc12)C(=O)O [free tryptophan, L-Tryptophan]
PTH [1]; free Trp 2 mg/mL, Fenton reaction
  Met[O]-PTH peaks: much less so
PTH [1]; stress Fenton reaction, stabilizer 2 mg/mL, 40° C., 6 hours
  protection of Trp residue in PTH: good protection
PTH [1]; stress H2O2, 40° C., 6 hours
  protection of PTH against oxidation: no protection
PTH [2]
  Trp oxidation of PTH, relative quantification by EIC: suppressed the Trp oxidation significantly
anti-VEGF antibody
  protection of anti-VEGF antibody against oxidation (basic peaks in IEC): excellent protection
anti-VEGF antibody; listed as Free Trp
  protection of anti-VEGF antibody against oxidation (basic peaks in IEC): effective in mitigating oxidation
anti-VEGF antibody; listed as free Trp
  protection of anti-VEGF antibody against oxidation (basic peaks in IEC): dropped to the baseline
anti-VEGF antibody; listed as tryptophan
  protection of anti-VEGF antibody against oxidation (basic peaks in IEC): effectively blocked the oxidative reaction
PTH [3]; free Trp 2 mg/mL, AAPH stress
  Met[O]-PTH peaks: prominent
PTH [3]
  protection of Trp residue in PTH: good protection
  protection of PTH against oxidation: effective only against the oxidation by AAPH

## OC[C@@H](O)[C@@H](O)[C@H](O)[C@H](O)CO [mannitol, Mannitol]
PTH [1]; stress H2O2, 40° C., 6 hours
  protection of PTH against oxidation: not protected by mannitol at all
PTH [1]; [5]
  protection of PTH against oxidation: effective; also recorded: complete protection
PTH [3]
  protection of PTH against oxidation: not protected by mannitol at all

## Cc1ncc(CO)c(CO)c1O [pyridoxine]
PTH [3]
  protection of Trp residue in PTH: excellent protection

## Cc1c(C)c2c(c(C)c1O)CCC(C)(C(=O)O)O2 (stereo not shown) [trolox, 6-hydroxy-2,5,7,8-tetramethylchroman-2-carboxylic acid]
PTH [3]
  protection of Trp residue in PTH: excellent protection

## anti-VEGF antibody: humanized anti-VEGF antibody fragment, indicated for the treatment of neovascular (wet) age-related macular degeneration
[4]; AAPH
  oxidation / peaks in basic region of IEC: produced additional peaks in the basic region of IEC chromatogram
[4]
  oxidation / oxidative species in basic region of IEC: did not cause the anti-VEGF antibody oxidation
[4]; listed as anti-VEGF
  oxidation / oxidative species in basic region of IEC: no oxidative species in basic region
